{
  "source": "patent US7541020B2",
  "about": "“Aminoalkyl glucosaminide phosphate compounds and their use as adjuvants and immunoeffectors” (priority 1997, dated 2009)",
  "key": {"influenza A/HK/68 [1]": {"system": "influenza A/HK/68", "test": "Second intranasal influenza vaccine experiment with aqueous AGP and MPL formulations: vaginal, tracheal wash and serum titers, protection", "format": "in vivo, BABL/c mice", "conditions": "administered intranasally with influenza vaccine; vaginal and tracheal washes"}, "ovalbumin": {"system": "ovalbumin", "test": "Stimulation of antiovalbumin antibody production", "format": "in vivo, BDF1 female mice", "conditions": "50 μg AGP + 50 μg ovalbumin; second immunization day 21; bled 14 days after second injection", "method": "BDF1 female mice (8 per group) were immunized with 0.2 ml of emulsions containing 50 μg of the AGPs +50 μg of ovalbumin. A second immunization was administered 21 days post primary. Each mouse was bled 14 days after the second injection."}, "tetanus toxoid": {"system": "tetanus toxoid", "conditions": "mouse, in vivo, sc"}, "influenza A/HK/68 [2]": {"system": "influenza A/HK/68", "conditions": "mouse, in vivo"}, "influenza A/HK/68 [3]": {"system": "influenza A/HK/68", "parameters": "species or system ICR mice", "conditions": "mouse, in vivo"}, "influenza A/HK/68 [4]": {"system": "influenza A/HK/68", "format": "in vivo, ICR mice", "conditions": "mouse, in vivo"}, "[5]": {"system": "hepatitis B surface antigen (HBsAg)", "test": "Serum anti-HBsAg antibody titers after intranasal HBsAg + AGP-AF (ELISA)", "format": "in vivo, BALB/c mice", "conditions": "for Anti HBsAg Titer^−1 IgG1 / Anti HBsAg Titer^−1 IgG2a: K = 10^3"}, "[6]": {"system": "hepatitis B surface antigen (HBsAg)", "test": "Vaginal wash anti-HBsAg antibody after intranasal HBsAg + AGP-AF", "format": "in vivo, BALB/c mice", "conditions": "10 days after the booster immunization; intranasal HBsAg + 10 μg AGP-AF", "source_text": "Vaginal samples were collected 10 days after the booster immunization and assayed for anti-HBsAg antibody."}, "[7]": {"test": "Fever response in rabbits (pyrogenicity)", "format": "in vivo", "conditions": "10 ug/kg; cumulative rise ≥1.5 degree in three rabbits is considered pyrogenic", "method": "The AGP compounds were also evaluated for their tendency to induce a fever response in rabbits. Each compound was formulated in 10% (v/v) ethanol/water solution at 100 mg/ml, then diluted with D5W to the desired concentration. The material was injected at 3 ml/kg body weight into 3 rabbits. The rise in core temperature of the rabbits was recorded."}, "E.G7 (OVA) cells": {"system": "E.G7 (OVA) cells", "conditions": "s.c. 25 μg OVA in AGP preparation, spleen cells 21 days later"}, "[8]": {"system": "hepatitis B surface antigen (HBsAg)", "conditions": "for % Cytotoxicity (d16, post 2°): HBsAg + 10 μg AGP-AF intranasally; for % Cytotoxicity (d8, post 3°): intranasal HBsAg + 10 μg AGP-AF"}, "[9]": {"conditions": "day 22 post 2°, HBsAg + 10 μg AGP-AF intranasally"}, "[10]": {"conditions": "serum, day 21 post 3°, intranasal HBsAg + 10 μg AGP-AF"}},
  "note": "Where two headings read alike, the source gives them in different places.",
  "data": [
    {"substance": "3-O-deacylated monophosphoryl lipid A [MPL®, reference compound]", "values": [
      {"measurement": "mucosal adjuvant activity (in words)", "setting": "influenza A/HK/68 [1]", "value": "act as mucosal adjuvants causing the production of IgA at two mucosal sites"}
    ]},
    {"substance": "3-[(R)-3-Tetradecanoyloxytetradecanoylamino]propyl 2-Deoxy-4-O-phosphono-3-O-[(R)-3-tetradecanoyoxytetradecanoyl]-2-[(R)-3-tetradecanoyloxytetradecanoylamino])-β-D-glucopyranoside Triethylammonium Salt [B21]", "values": [
      {"measurement": "Anti-ovalbumin IgG1 T/C", "setting": "ovalbumin", "value": 0.6},
      {"measurement": "Anti-ovalbumin IgG1 Titer", "setting": "ovalbumin", "value": 1000},
      {"measurement": "Anti-ovalbumin IgG2a T/C", "setting": "ovalbumin", "value": 0.1},
      {"measurement": "Anti-ovalbumin IgG2a Titer", "setting": "ovalbumin", "value": 25},
      {"measurement": "Anti-ovalbumin IgG2b T/C", "setting": "ovalbumin", "value": 0.8},
      {"measurement": "Anti-ovalbumin IgG2b Titer", "setting": "ovalbumin", "value": 200},
      {"measurement": "Anti-ovalbumin IgM T/C", "setting": "ovalbumin", "value": 1.3},
      {"measurement": "Anti-ovalbumin IgM Titer", "setting": "ovalbumin", "value": 250},
      {"measurement": "Anti-ovalbumin Total Ig T/C", "setting": "ovalbumin", "value": 0.5},
      {"measurement": "Anti-ovalbumin Total Ig Titer", "setting": "ovalbumin", "value": 113},
      {"measurement": "Anti-tetanus toxoid IgG1 T/C", "setting": "tetanus toxoid", "value": 2.23},
      {"measurement": "Anti-tetanus toxoid IgG1 Titer", "setting": "tetanus toxoid", "value": "480,000"},
      {"measurement": "Anti-tetanus toxoid IgG2a T/C", "setting": "tetanus toxoid", "value": 5.83},
      {"measurement": "Anti-tetanus toxoid IgG2a Titer", "setting": "tetanus toxoid", "value": "29,600"},
      {"measurement": "Anti-tetanus toxoid IgG2b T/C", "setting": "tetanus toxoid", "value": 6.07},
      {"measurement": "Anti-tetanus toxoid IgG2b Titer", "setting": "tetanus toxoid", "value": "174,400"},
      {"measurement": "Anti-tetanus toxoid IgM T/C", "setting": "tetanus toxoid", "value": 5.50},
      {"measurement": "Anti-tetanus toxoid IgM Titer", "setting": "tetanus toxoid", "value": "8,800"},
      {"measurement": "Anti-tetanus toxoid Total IgG T/C", "setting": "tetanus toxoid", "value": 4.71},
      {"measurement": "Anti-tetanus toxoid Total IgG Titer", "setting": "tetanus toxoid", "value": "30,400"},
      {"measurement": "Percent Survival", "setting": "influenza A/HK/68 [2]", "value": 40, "unit": "%"},
      {"measurement": "Titer−1 IgG1", "setting": "influenza A/HK/68 [2]", "value": 800},
      {"measurement": "Titer−1 IgG2a", "setting": "influenza A/HK/68 [2]", "value": 100},
      {"measurement": "Titer−1 IgG2b", "setting": "influenza A/HK/68 [2]", "value": 1600},
      {"measurement": "Titer−1 Total IgG", "setting": "influenza A/HK/68 [2]", "value": 6400}
    ]},
    {"substance": "3-Hydroxy-(S)-2-[(R)-3-undecanoyloxytetradecanoylamino]propyl 2-Deoxy-4-O-phosphono-2-[(R)-3-undecanoyloxytetradecanoylamino]-3-O-[(R)-3-undecanoyloxytetradecanoyl]-β-D-glucopyranoside Triethylammonium Salt [B4]", "values": [
      {"measurement": "IgG Titer-1 post 1°", "setting": "influenza A/HK/68 [3]", "value": 800},
      {"measurement": "IgG Titer-1 post 2°", "setting": "influenza A/HK/68 [3]", "value": "25,600"},
      {"measurement": "Percent Survival post 1°", "setting": "influenza A/HK/68 [3]", "value": 50, "unit": "%"},
      {"measurement": "Percent Survival post 2°", "setting": "influenza A/HK/68 [3]", "value": 70, "unit": "%"},
      {"measurement": "Percent Survival", "setting": "influenza A/HK/68 [4]", "value": 60, "unit": "%"},
      {"measurement": "Titer−1 IgG1", "setting": "influenza A/HK/68 [4]", "value": 400},
      {"measurement": "Titer−1 IgG2a", "setting": "influenza A/HK/68 [4]", "value": 100},
      {"measurement": "Titer−1 IgG2b", "setting": "influenza A/HK/68 [4]", "value": 1600},
      {"measurement": "Titer−1 Total IgG", "setting": "influenza A/HK/68 [4]", "value": 3200},
      {"measurement": "Anti HBsAg Titer^−1 IgA", "setting": "[5]; [9]", "value": "6,400"},
      {"measurement": "Anti HBsAg Titer^−1 IgG1", "setting": "[5]; [9]", "value": 500, "unit": "K"},
      {"measurement": "Anti HBsAg Titer^−1 IgG2a", "setting": "[5]; [9]", "value": 1000, "unit": "K"},
      {"measurement": "Anti HBsAg Titer^−1 IgG1", "setting": "[5]; [10]", "value": 1000, "unit": "K"},
      {"measurement": "Anti HBsAg Titer^−1 IgG2a", "setting": "[5]; [10]", "value": 2000, "unit": "K"},
      {"measurement": "Anti HBsAg Titer^−1 IgA", "setting": "[5]; [10]", "value": "25,600"},
      {"measurement": "Vaginal Wash Anti-HBsAg Titer^−1 IgA", "setting": "[6]", "value": 6400},
      {"measurement": "Vaginal Wash Anti-HBsAg Titer^−1 IgG", "setting": "[6]", "value": 1600},
      {"measurement": "PYROGENICITY Total Rise ° C., 3 rabbits", "setting": "[7]", "value": 3.4, "unit": "°C"},
      {"measurement": "% Cytotoxicity", "setting": "E.G7 (OVA) cells; E:T 12.5:1", "value": 60, "unit": "%"},
      {"measurement": "% Cytotoxicity", "setting": "E.G7 (OVA) cells; E:T 25:1", "value": 66, "unit": "%"},
      {"measurement": "% Cytotoxicity", "setting": "E.G7 (OVA) cells; E:T 50:1", "value": 72, "unit": "%"},
      {"measurement": "% Cytotoxicity (d16, post 2°)", "setting": "[8]; E/T 6.25:1", "value": 7, "unit": "%"},
      {"measurement": "% Cytotoxicity (d8, post 3°)", "setting": "[8]; E/T 6.25:1", "value": 5, "unit": "%"},
      {"measurement": "% Cytotoxicity (d16, post 2°)", "setting": "[8]; E/T 12.5:1", "value": 9, "unit": "%"},
      {"measurement": "% Cytotoxicity (d8, post 3°)", "setting": "[8]; E/T 12.5:1", "value": 9, "unit": "%"},
      {"measurement": "% Cytotoxicity (d16, post 2°)", "setting": "[8]; E/T 25:1", "value": 17, "unit": "%"},
      {"measurement": "% Cytotoxicity (d8, post 3°)", "setting": "[8]; E/T 25:1", "value": 15, "unit": "%"},
      {"measurement": "% Cytotoxicity (d16, post 2°)", "setting": "[8]; E/T 50:1", "value": 28, "unit": "%"},
      {"measurement": "% Cytotoxicity (d8, post 3°)", "setting": "[8]; E/T 50:1", "value": 23, "unit": "%"}
    ]}
  ]
}
